# Source: patent US11219607B2, “Methods for suppressing cancer-related cachexia” (Ohio State Innovation Foundation, priority 2013, dated 2022)
# How the values were obtained:
# Format in all cases: in vivo, CD2F1 mice
# [1] = tested on: global gene expression in muscle of C-26 tumor-bearing mice; experiment: RNA-seq of gastrocnemius muscle, C-26 model
# Experimental: (§1) Total RNA was isolated from homogenized gastrocnemius muscles (n=3/group) with TRIzol reagent (Life Technologies, Carlsbad, Calif.) and then purified using the RNAeasy Mini Kit (Qiagen, Valencia, Calif.). qRT-PCR was performed as described previously (42) by using the Bio-Rad CFX96 Real-Time PCR Detection System with iQ SYBR Green Supermix (Bio-Rad, Hercules, Calif.). RNA-seq library generation and data analysis were performed at The Ohio State University Comprehensive Cancer Center (OSUCCC) Nucleic Acid Shared Resource.
# Data analysis was conducted by using SAS 9.3 software (SAS, Inc; Cary, N.C.). For the experiments with repeated measures, data were analyzed by mixed effect models, incorporating observational dependencies across each subject. For other experiments involving independent groups, data were analyzed by ANOVA. For the time-to-event experiment (FIG. 2B), the difference in survival functions were compared by log-rank tests. Multiplicities were adjusted by Holm's method to control the overall family-wise error rate at 0.05. RNA-seq data were analyzed by using Ingenuity Pathway Analysis (IPA) software (Ingenuity Systems, Redwood City, Calif.). Only genes with >4-fold change and P<0.05 were selected for pathway analysis. […]
# RNA quality was assessed on an Agilent 2100 Bioanalyzer using a Pico RNA chip and the input total RNA amount was assessed using Agilent Qubit RNA assay. […] The resultant libraries were assessed for quantity and quality using Agilent Qubit DNA assay and with PerkinElmer Labchip DNA GX analysis, respectively. All libraries were mixed in equal proportions generating pools of samples that would yield approximately 40 million passed filter reads when sequenced on Illumina HiSeq 2500 sequencer. The raw sequencing data from the Illumina HiSeq CASAVA pipeline were assessed for quality using FastQC, RNASeQC and RSeQC software. […]
# [2] = tested on: IL-6 receptor alpha chain (IL-6Rα) mRNA; experiment: qPCR of skeletal muscle, C-26 model: IL-6Rα; settings: muscle of C-26 tumor-bearing mice; tumor-bearing/vehicle 13±1.4-fold
# Experimental: as §1
# Cytokine profiles. […] AR-42 reduced IL-6 and LIF levels by 56% and 88%, respectively, in tumor-bearing mice (IL-6, 102±38 pg/ml; LIF, 3.8±1.6 pg/ml) compared to the vehicle-treated counterparts. In light of the ability of AR-42 to blunt cachexia-associated increases in IL-6, we examined the effect of AR-42 on intramuscular mRNA levels of IL-6 receptor alpha chain (IL-6Rα). […] AR-42 reduced this cachexia-induced increase by 85% (2.0±0.2-fold; n=10)(FIG. 5, lower).
# MuRF1 mRNA = experiment: qPCR of gastrocnemius muscle, C-26 model: MuRF1; settings: C-26 tumor-bearing mice, 15 days after tumor cell injection, tumor-bearing/vehicle 25.8±3.9-fold, mean±S.D.
# Experimental: as §1
# AR-42 was able to restore expression of Atrogin-1 (2.7±0.7-fold) and MuRF1 (1.1±0.2-fold) mRNA to basal levels […].
smiles,measurement,setting,value
"CC(C)[C@H](C(=O)Nc1ccc(C(=O)NO)cc1)c1ccccc1 [AR-42, (S)—N-hydroxy-4-(3-methyl-2-phenylbutanamido)benzamide]","number of downregulated genes (4-fold or greater), AR-42- versus vehicle-treated tumor-bearing mice",[1],301 genes
same,"number of upregulated genes (4-fold or greater), AR-42- versus vehicle-treated tumor-bearing mice",[1],376 genes
same,"number of genes with 4-fold or greater differential expression, AR-42- versus vehicle-treated tumor-bearing mice",[1]; total,677 genes
same,IL-6Rα mRNA level compared to tumor-free mice,[2],2.0±0.2 fold
same,MuRF1 mRNA level relative to tumor-free/vehicle control,MuRF1 mRNA,1.1±0.2 fold
